Results taken from PubChem BioAssay AID2060494 (Molecular Pharmacology Branch, DTP, NCI, 2025).

Tested on: 435261-313-R-J1-PDC complex spheroid viability
Assay: Anticancer human tumor 435261-313-R-J1-PDC patient-derived colon adenocarcinoma cell line growth inhibition [GQUAD]
Details: for IC50: curve of first compound; for viability, T/C: stronger effect = lower value
Summary of the method: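 Tumor cells were grown as complex spheroids with HUVEC endothelial cells and mesenchymal stem cells as stroma. G-quadruplex stabilizers were combined with targeted agents over half-log dilutions from near the clinical Cmax, or from 10 microM.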

[1] = second compound 0.0316 µM, first compound 0.0316 µM
[2] = second compound 0.0316 µM, first compound 0.1 µM
[3] = second compound 0.0316 µM, first compound 0.316 µM
[4] = second compound 0.0316 µM, first compound 1 µM
[5] = second compound 0.0316 µM, first compound 3.16 µM
[6] = second compound 0.0316 µM, first compound 10 µM
[7] = second compound 0.1 µM, first compound 0.0316 µM
[8] = second compound 0.1 µM, first compound 0.1 µM
[9] = second compound 0.1 µM, first compound 0.316 µM
[10] = second compound 0.1 µM, first compound 1 µM
[11] = second compound 0.1 µM, first compound 3.16 µM
[12] = second compound 0.1 µM, first compound 10 µM
[13] = second compound 0.316 µM, first compound 0.0316 µM
[14] = second compound 0.316 µM, first compound 0.1 µM
[15] = second compound 0.316 µM, first compound 0.316 µM
[16] = second compound 0.316 µM, first compound 1 µM
[17] = second compound 0.316 µM, first compound 3.16 µM
[18] = second compound 0.316 µM, first compound 10 µM
[19] = second compound 1 µM, first compound 0.0316 µM
[20] = second compound 1 µM, first compound 0.1 µM
[21] = second compound 1 µM, first compound 0.316 µM
[22] = second compound 1 µM, first compound 1 µM
[23] = second compound 1 µM, first compound 3.16 µM
[24] = second compound 1 µM, first compound 10 µM
[25] = second compound 3.16 µM, first compound 0.0316 µM
[26] = second compound 3.16 µM, first compound 0.1 µM
[27] = second compound 3.16 µM, first compound 0.316 µM
[28] = second compound 3.16 µM, first compound 1 µM
[29] = second compound 3.16 µM, first compound 3.16 µM
[30] = second compound 3.16 µM, first compound 10 µM
[31] = second compound 10 µM, first compound 0.0316 µM
[32] = second compound 10 µM, first compound 0.1 µM
[33] = second compound 10 µM, first compound 0.316 µM
[34] = second compound 10 µM, first compound 1 µM
[35] = second compound 10 µM, first compound 3.16 µM
[36] = second compound 10 µM, first compound 10 µM
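Also: spheroids exposed to the agents for seven days before readout.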
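For viability, T/C in this document: percent of vehicle control viability with DMSO wells as 100%.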

Work on `C=CC(=O)N1CCN(c2nc(=O)n(-c3c(C)ccnc3C(C)C)c3nc(-c4c(O)cccc4F)c(F)cc23)C(C)C1` (stereo not drawn) + Cc1cnc(CNC(=O)c2c(=O)c3ccc(N4CCCN(C)CC4)nc3n3c2sc2ccccc23)cn1 yielded an IC50 (second compound 0.0316 µM) greater than 10000 nM, an IC50 (second compound 0.1 µM) greater than 10000 nM and an IC50 (second compound 0.316 µM) greater than 10000 nM. It also gave an IC50 (second compound 1 µM) of less than 31.6 nM, an IC50 (second compound 3.16 µM) of less than 31.6 nM and an IC50 (second compound 10 µM) of less than 31.6 nM. The viability, T/C [1] was 76.1%, the viability, T/C [2] was 59.5% and the viability, T/C [3] was 86.8%. It also gave a viability, T/C [4] of 68.1%, a viability, T/C [5] of 98.3% and a viability, T/C [6] of 67.4%. The viability, T/C [7] was 47.9%, the viability, T/C [8] was 63.3% and the viability, T/C [9] was 56.6%. It also gave a viability, T/C [10] of 63.3%, a viability, T/C [11] of 63.8% and a viability, T/C [12] of 65.7%. It also gave a viability, T/C [13] of 56.4%, a viability, T/C [14] of 59.3% and a viability, T/C [15] of 60%. The viability, T/C [16] was 52%, the viability, T/C [17] was 71.1% and the viability, T/C [18] was 65.1%. It also gave a viability, T/C [19] of 37.4%, a viability, T/C [20] of 39.1% and a viability, T/C [21] of 48%. It also gave a viability, T/C [22] of 47.5%, a viability, T/C [23] of 48.8% and a viability, T/C [24] of 47.9%. For the same compound, the viability, T/C [25] was 19.2%, the viability, T/C [26] was 21.6% and the viability, T/C [27] was 24.2%. It also gave a viability, T/C [28] of 29.7%, a viability, T/C [29] of 23.5% and a viability, T/C [30] of 14.3%. It also gave a viability, T/C [31] of 0.21%, a viability, T/C [32] of 0.22% and a viability, T/C [33] of 0.17%. For the same compound, the viability, T/C [34] was 0.25%, the viability, T/C [35] was 0.22% and the viability, T/C [36] was 0.16%.

`Cc1cccc(N(C)C(=O)C2C(O)CCN2c2nc(C)cc(C(F)(F)F)c2C#N)c1` (stereo not drawn) + Cc1cnc(CNC(=O)c2c(=O)c3ccc(N4CCCN(C)CC4)nc3n3c2sc2ccccc23)cn1 gave an IC50 (second compound 0.0316 µM) greater than 10000 nM, an IC50 (second compound 0.1 µM) greater than 10000 nM and an IC50 (second compound 0.316 µM) greater than 10000 nM. It also gave an IC50 (second compound 1 µM) of less than 31.6 nM, an IC50 (second compound 3.16 µM) of less than 31.6 nM and an IC50 (second compound 10 µM) of less than 31.6 nM. It also gave a viability, T/C [1] of 72.9%, a viability, T/C [2] of 76.9% and a viability, T/C [3] of 73.3%. The viability, T/C [4] was 63.7%, the viability, T/C [5] was 75.8% and the viability, T/C [6] was 81.6%. The viability, T/C [7] was 59.2%, the viability, T/C [8] was 66% and the viability, T/C [9] was 52.2%. For the same compound, the viability, T/C [10] was 56.3%, the viability, T/C [11] was 61.5% and the viability, T/C [12] was 62.3%. For the same compound, the viability, T/C [13] was 49.1%, the viability, T/C [14] was 52.5% and the viability, T/C [15] was 65.3%. The viability, T/C [16] was 51.7%, the viability, T/C [17] was 51.1% and the viability, T/C [18] was 53%. The viability, T/C [19] was 42%, the viability, T/C [20] was 53% and the viability, T/C [21] was 47.9%. The viability, T/C [22] was 51.6%, the viability, T/C [23] was 48.6% and the viability, T/C [24] was 45.3%. It also gave a viability, T/C [25] of 16.1%, a viability, T/C [26] of 21% and a viability, T/C [27] of 17%. For the same compound, the viability, T/C [28] was 17.3%, the viability, T/C [29] was 12.8% and the viability, T/C [30] was 9.97%. For the same compound, the viability, T/C [31] was 0.21%, the viability, T/C [32] was 5.23% and the viability, T/C [33] was 6.24%. For the same compound, the viability, T/C [34] was 0.26%, the viability, T/C [35] was 0.33% and the viability, T/C [36] was 0.25%.

Work on `Cn1ncnc1[C@H]1c2n[nH]c(=O)c3cc(F)cc(c23)N[C@@H]1c1ccc(F)cc1` + Cc1cnc(CNC(=O)c2c(=O)c3ccc(N4CCCN(C)CC4)nc3n3c2sc2ccccc23)cn1 yielded an IC50 (second compound 0.0316 µM) greater than 316 nM, an IC50 (second compound 0.1 µM) greater than 316 nM and an IC50 (second compound 0.316 µM) greater than 316 nM. For the same compound, the IC50 (second compound 1 µM) was less than 0.999 nM, the IC50 (second compound 3.16 µM) was less than 0.999 nM and the IC50 (second compound 10 µM) was less than 0.999 nM. The viability, T/C (second compound 0.0316 µM, first compound 0.000999 µM) was 82.1%, the viability, T/C (second compound 0.0316 µM, first compound 0.00316 µM) was 60.3% and the viability, T/C (second compound 0.0316 µM, first compound 0.00999 µM) was 66.2%. It also gave a viability, T/C [1] of 60.9%, a viability, T/C (second compound 0.0316 µM, first compound 0.0999 µM) of 72.1% and a viability, T/C [3] of 62.9%. The viability, T/C (second compound 0.1 µM, first compound 0.000999 µM) was 59.5%, the viability, T/C (second compound 0.1 µM, first compound 0.00316 µM) was 60.5% and the viability, T/C (second compound 0.1 µM, first compound 0.00999 µM) was 47.1%. The viability, T/C [7] was 57%, the viability, T/C (second compound 0.1 µM, first compound 0.0999 µM) was 59.4% and the viability, T/C [9] was 62.4%. The viability, T/C (second compound 0.316 µM, first compound 0.000999 µM) was 58.9%, the viability, T/C (second compound 0.316 µM, first compound 0.00316 µM) was 57.8% and the viability, T/C (second compound 0.316 µM, first compound 0.00999 µM) was 55.4%. It also gave a viability, T/C [13] of 53.1%, a viability, T/C (second compound 0.316 µM, first compound 0.0999 µM) of 49.6% and a viability, T/C [15] of 53.4%. It also gave a viability, T/C (second compound 1 µM, first compound 0.000999 µM) of 42.4%, a viability, T/C (second compound 1 µM, first compound 0.00316 µM) of 46.8% and a viability, T/C (second compound 1 µM, first compound 0.00999 µM) of 59.2%. The viability, T/C [19] was 49.8%, the viability, T/C (second compound 1 µM, first compound 0.0999 µM) was 47.1% and the viability, T/C [21] was 46.9%. It also gave a viability, T/C (second compound 3.16 µM, first compound 0.000999 µM) of 17.9%, a viability, T/C (second compound 3.16 µM, first compound 0.00316 µM) of 18.4% and a viability, T/C (second compound 3.16 µM, first compound 0.00999 µM) of 12.7%. The viability, T/C [25] was 23%, the viability, T/C (second compound 3.16 µM, first compound 0.0999 µM) was 20.4% and the viability, T/C [27] was 11.9%. The viability, T/C (second compound 10 µM, first compound 0.000999 µM) was 0.24%, the viability, T/C (second compound 10 µM, first compound 0.00316 µM) was 11.3% and the viability, T/C (second compound 10 µM, first compound 0.00999 µM) was 0.24%. It also gave a viability, T/C [31] of 0.21%, a viability, T/C (second compound 10 µM, first compound 0.0999 µM) of 0.18% and a viability, T/C [33] of 9.04%.

With `O=C(c1cc(Cc2n[nH]c(=O)c3ccccc23)ccc1F)N1CCN(C(=O)C2CC2)CC1` + Cc1cnc(CNC(=O)c2c(=O)c3ccc(N4CCCN(C)CC4)nc3n3c2sc2ccccc23)cn1 the IC50 (second compound 0.0316 µM) was greater than 10000 nM, the IC50 (second compound 0.1 µM) was greater than 10000 nM and the IC50 (second compound 0.316 µM) was greater than 10000 nM. The IC50 (second compound 1 µM) was less than 31.6 nM, the IC50 (second compound 3.16 µM) was less than 31.6 nM and the IC50 (second compound 10 µM) was less than 31.6 nM. It also gave a viability, T/C [1] of 76%, a viability, T/C [2] of 60.9% and a viability, T/C [3] of 66.3%. The viability, T/C [4] was 68.2%, the viability, T/C [5] was 84% and the viability, T/C [6] was 77.7%. For the same compound, the viability, T/C [7] was 65.2%, the viability, T/C [8] was 65.1% and the viability, T/C [9] was 58.3%. It also gave a viability, T/C [10] of 62%, a viability, T/C [11] of 64% and a viability, T/C [12] of 62.1%. For the same compound, the viability, T/C [13] was 59.4%, the viability, T/C [14] was 53.8% and the viability, T/C [15] was 58.7%. For the same compound, the viability, T/C [16] was 59.6%, the viability, T/C [17] was 53% and the viability, T/C [18] was 52.2%. The viability, T/C [19] was 38.6%, the viability, T/C [20] was 45.9% and the viability, T/C [21] was 38.1%. The viability, T/C [22] was 42.7%, the viability, T/C [23] was 55.9% and the viability, T/C [24] was 37.6%. The viability, T/C [25] was 26.4%, the viability, T/C [26] was 9.89% and the viability, T/C [27] was 25.5%. For the same compound, the viability, T/C [28] was 15.3%, the viability, T/C [29] was 27.3% and the viability, T/C [30] was 20.5%. It also gave a viability, T/C [31] of 0.23%, a viability, T/C [32] of 0.23% and a viability, T/C [33] of 0.21%. The viability, T/C [34] was 0.23%, the viability, T/C [35] was 0.22% and the viability, T/C [36] was 0.23%.
